Calls of active or inactive are those of the source. No cut-off for these calls is given here.
Columns and labels:
[1] = tested on: HeLa; assay: Antiproliferative activity against human HeLa cells by MTT assay; type: functional, cell-based
[2] = tested on: MDA-MB-231; assay: Antiproliferative activity against human MDA-MB-231 cells by MTT assay; type: functional, cell-based
[3] = (§1) Cytotoxicity against human HEK293T cells by MTT assay; type: toxicity, cell-based, HEK-293T; conditions: human, HEK293T cells
[4] = tested on: HEK-293T; assay: as §1; type: toxicity, cell-based; conditions: hek-293t; for Activity: human
[5] = tested on: HeLa; assay: Antitumor activity against human HeLa cells xenografted in chicken embryo chorioallantoic membrane assessed as reduction in tumor weight at 2.5 uM (reference value: 39 +/- 1.41 mg); type: functional
[6] = tested on: HeLa; assay: Inhibition of cell migration in human HeLa cells assessed as migration rate at 5 uM incubated for 24 hrs by transwell assay; values are per cent of control
[7] = tested on: HeLa; assay: Inhibition of colony formation in human HeLa cells at 10 uM incubated for 24 hrs; type: functional
[8] = tested on: HeLa; assay: Inhibition of cell adhesion in human HeLa cells; type: functional, cell-based
[9] = tested on: HeLa; assay: Inhibition of cell adhesion in human HeLa cells at 10 uM; type: functional
[10] = tested on: HeLa; assay: Inhibition of colony formation in human HeLa cells incubated for 24 hrs; type: functional, cell-based; conditions: dose 2.5-10 µM
[11] = Inhibition of tumor angiogenesis in human HeLa cells xenografted in chick embryo chorioallantoic membrane at 5 uM incubated for 24 hrs; values are per cent of control
[12] = tested on: HeLa; assay: Antitumor activity against human HeLa cells xenografted in chicken embryo chorioallantoic membrane assessed as reduction in tumor weight at 5 uM (reference value: 39 +/- 1.41 mg); type: functional
[13] = Inhibition of tumor angiogenesis in human HeLa cells xenografted in chick embryo chorioallantoic membrane at 10 uM incubated for 24 hrs; values are per cent of control
[14] = Inhibition of tumor angiogenesis in human HeLa cells xenografted in chick embryo chorioallantoic membrane at 2.5 uM incubated for 24 hrs; values are per cent of control
[15] = tested on: HeLa; assay: Antitumor activity against human HeLa cells xenografted in chicken embryo chorioallantoic membrane assessed as reduction in tumor weight at 10 uM (reference value: 39 +/- 1.41 mg); type: functional
[16] = tested on: HeLa; assay: Inhibition of cell migration in human HeLa cells assessed as migration rate at 10 uM incubated for 24 hrs by transwell assay; values are per cent of control
[17] = tested on: HeLa; assay: Inhibition of cell migration in human HeLa cells assessed as migration rate at 2.5 uM incubated for 24 hrs by transwell assay; values are per cent of control

| SMILES | IC50 [1] | IC50 [2] | IC50 [3] | further results |
| --- | --- | --- | --- | --- |
| O=C(/C=C/C=C/c1ccc2c(c1)OCO2)N1CCCCC1 [PIPERINE] | 44.4 µM | 239 µM | 42.8 µM | – |
| O=C(/C=C/c1ccc2c(c1)OCO2)Nc1cccc2c1CN(C1CCC(=O)NC1=O)C2=O (configuration not stated) | 37.3 µM | – | – | Activity [2]: inactive; IC50 [4]: 1.44 mM |
| O=C(/C=C/C=C/c1ccc2c(c1)OCO2)Nc1cccc2c1CN(C1CCC(=O)NC1=O)C2=O (configuration not stated) | 50.4 µM | 80.7 µM | 81.5 µM | – |
| Cc1cn(-c2cc(NC(=O)c3ccc4c(c3)OCO4)cc(C(F)(F)F)c2)cn1 | 50.6 µM | 254 µM | 479 µM | – |
| COc1cc2c(cc1OC)C(=O)C(CC1CCN(C(=O)/C=C/C=C/c3ccc4c(c3)OCO4)CC1)C2 (configuration not stated) | 32.1 µM | 123 µM | 61.9 µM | – |
| O=C1CCC(N2Cc3c(NC(=O)Cc4ccc5c(c4)OCO5)cccc3C2=O)C(=O)N1 (configuration not stated) | 63.2 µM | – | – | Activity [2]: inactive; IC50 [4]: 1.43 mM |
| Cc1cn(-c2cc(NC(=O)/C=C/C=C/c3ccc4c(c3)OCO4)cc(C(F)(F)F)c2)cn1 | 10.2 µM | 22.8 µM | 104 µM | Activity [5]: 28.5 mg; migration rate (% of control) at 5 µM [6]: 50.4%; inhibition at 10 µM [7]: 25.1%; inhibition [8]: Dose-Dependent Effect; inhibition at 10 µM [9]: 16.7%; inhibition [10]: Dose-Dependent Effect; angiogenesis (% of control) at 5 µM [11]: 78.4%; Activity [12]: 13.5 mg; angiogenesis (% of control) at 10 µM [13]: 61.9%; angiogenesis (% of control) at 2.5 µM [14]: 93.2%; Activity [15]: 7.5 mg; migration rate (% of control) at 10 µM [16]: 27.6%; migration rate (% of control) at 2.5 µM [17]: 80.3% |
| Cc1cn(-c2cc(NC(=O)/C=C/c3ccc4c(c3)OCO4)cc(C(F)(F)F)c2)cn1 | 8.61 µM | 28.8 µM | 18.7 µM | – |
| COc1cc2c(cc1OC)C(=O)C(CC1CCN(C(=O)/C=C/c3cc4c(cc3Br)OCO4)CC1)C2 (configuration not stated) | 29.5 µM | 15.2 µM | – | Activity [4]: Non-Toxic |
| Cc1cn(-c2cc(NC(=O)Cc3ccc4c(c3)OCO4)cc(C(F)(F)F)c2)cn1 | 7.81 µM | 46.9 µM | 18.9 µM | – |
| O=c1[nH]cc(F)c(=O)[nH]1 [FLUOROURACIL] | 44.6 µM | 18.1 µM | 3.21 µM | inhibition at 10 µM [7]: 52.1%; inhibition at 10 µM [9]: 55.8%; angiogenesis (% of control) at 10 µM [13]: 78.8%; migration rate (% of control) at 10 µM [16]: 47.3% |
| COc1cc2c(cc1OC)C(=O)C(CC1CCN(C(=O)/C=C/c3ccc4c(c3)OCO4)CC1)C2 (configuration not stated) | 18.5 µM | 105 µM | 8.03 µM | – |
| O=C1CCC(N2Cc3c(NC(=O)c4ccc5c(c4)OCO5)cccc3C2=O)C(=O)N1 (configuration not stated) | 11.5 µM | 284 µM | 625 µM | – |
| COc1cc2c(cc1OC)C(=O)C(CC1CCN(C(=O)c3ccc4c(c3)OC(F)(F)O4)CC1)C2 (configuration not stated) | 38 µM | 81.3 µM | – | Activity [4]: Non-Toxic |
| COc1cc2c(cc1OC)C(=O)C(CC1CCN(C(=O)c3ccc4c(c3)OCO4)CC1)C2 (configuration not stated) | 25 µM | 80.6 µM | 405 µM | – |

— ChEMBL document CHEMBL6127011, “Design, synthesis, and evaluation of benzodioxolane compounds for antitumor activity” (Bioorg Med Chem Lett, 2024)
